What was measured:
Assay type in all cases: ADME, organism-based
[1] = Volume of distribution at steady state in Sprague-Dawley rat at 10 mg/kg, po or 1 mg/kg, iv; settings: in vivo, read-out: Vdss
[2] = Clearance in Sprague-Dawley rat at 10 mg/kg, po or 1 mg/kg, iv relative to hepatic blood flow; settings: in vivo
[3] = Oral bioavailability in Sprague-Dawley rat at 10 mg/kg; settings: in vivo

Compound `CS(=O)(=O)c1cc(CNC(=O)c2cncc3c2cnn3-c2ccc(F)cc2)ccn1` has a Vd [1] of 1.2 L/kg, a CL [2] of 8% and a bioavailability [3] of 29%.

— ChEMBL document CHEMBL4330105, “Identification of novel azaindazole CCR1 antagonist clinical candidates” (Bioorg Med Chem Lett, 2019)
